# Values quoted from earlier work in patent US20150056314A1, “EXTRACTION METHOD FOR USE IN EXTRACTING BENEFICIAL COMPOUNDS FROM COFFEE BEANS” (Applied Food Sciences, Inc., priority 2003, published 2015).
# Key:
# [1] = system: methylazoxymethanol-induced large intestinal tumors; settings: hamster models
# [2] = system: rat stomach cancer; settings: rat (Shimizu et al J Toxicol Sci 1999)
structure (smiles),measurement,setting,value
O=C(/C=C/c1ccc(O)c(O)c1)O[C@@H]1C[C@](O)(C(=O)O)C[C@@H](O)[C@H]1O [chlorogenic acid],inhibition of methylazoxymethanol-induced large intestinal tumors,[1],inhibit
same,effect on rat stomach cancer,[2],chemopreventative effect
